In one data set the test system is HCV genotype 1b replicon. Description: HCV Replicon Assay. The data set is classed as cell-based. The settings on record: Zluc (Huh-7-derived) cells, HCV genotype 1b replicon, luciferase reporter, 72 hours, read-out: HCV Replicon EC50. How it is done:
Huh-7-derived cell line (Zluc) that harbors an HCV genotype 1b replicon and a luciferase reporter gene was grown in Dulbecco's Modified Eagle Medium (DMEM) supplemented with 10% fetal bovine serum, 2 mM GlutaMAX, 1% MEM nonessential amino acids, 100 IU/mL penicillin, 100 μg/mL streptomycin, and 0.5 mg/mL Geneticin® (G418). For dose response testing the cells were seeded in 96-well plates at 7.5×10^3 cells per well in a volume of 50 μL, and incubated at 37° C./5% CO2. Drug solutions were made up freshly in Huh-7 media as 2× stocks. Ten additional 5-fold dilutions were prepared from these stocks in DMEM without G418. At least three hours after Zluc cells were seeded, drug treatment was initiated by adding 50 μL of drug dilutions to the plates in duplicate. Final concentrations of drug ranged from 100 μM to […]. Cells were then incubated at 37° C./5% CO2. Alternatively, compounds were tested at two concentrations (1 μM and 10 μM). […] For this, media was removed from the plates via gentle tapping. Fifty microliters of ONE-glo luciferase assay reagent was added to each well. The plates were shaken gently for 3 min at room temperature and luminescence was measured on a Victor^3 V 1420 multilabel counter (Perkin Elmer) with a 1 second read time using a 700 nm cut-off filter. The EC50 values were calculated from dose response curves from the resulting best-fit equations determined by Microsoft Excel and XLfit 4.1 software. When screening at two fixed concentrations, the results were expressed as % inhibition at 1 μM and 10 μM.
In general terms: In antiviral work, replicon cells carry a viral genome segment that copies itself.

A short description of data set [1]: Cytotoxicity evaluation (CellTiter-Blue Cell Viability Assay). The class given is cell-based, human. Conditions: human, Zluc cells, read-out: HCV Replicon CC50.
The subject of a further data set is Zluc cells. The data set is described as above. Conditions: read-out: HCV Replicon CC50. The data set is classed as cell-based, human.
The nature of data set [2]: Stability in simulated intestinal fluid. The data set is classed as in vitro ADME. The settings on record: 100 μM, 2 hours at 37° C.; percent of peak area at time zero. How it is done: Stability in Simulated Gastric and Intestinal Fluids: Simulated gastric and intestinal fluids containing pepsin and pancreatin respectively were prepared according to the U.S. Pharmacopoeia USP291 procedure (www.pharmacopeia.cn/v29240/usp29nf24s0_ris1s126.html). Test compound (final concentration 100 μM) was incubated in duplicate in the appropriate fluid for 2 hours at 37° C. The samples were quenched with 200 μl cold acetonitrile, vortexed for 30 seconds and then centrifuged at 16,100 g for 10 min. The supernatants were analyzed by HPLC on a C-18 column with UV detection at 252 nm. The time 0 samples were prepared by adding SGF or SIF fluid to the quenching solvent followed by the test compound. Stability of the compound was determined by peak area the test compound after incubation and calculated as percent of the peak area observed at time zero.

Data set [3] in a line: Stability in fresh human whole blood. The data set is classed as in vitro ADME. Conditions: 0.5 μM, percent unchanged test compound. As to the method:
Stability in Fresh Whole Blood: Stability of test compounds were determined in fresh human whole blood with K2EDTA as the anticoagulant (stored refrigerated at 2-8° C. and used within 7 days of receipt). The experiment was conducted with three replicates for each time point. Whole blood, pre-incubated at 37° C. for 10-15 minutes, was fortified with a solution of test compound for a final concentration of 0.5 μM and mixed for 30 sec. At intervals (0, 0.5, 1 and 2 hr), three 50-μL aliquots were combined with 200 μL (each) of an ice-cold solution of the internal standard (carbutamide 500 ng/mL in acetonitrile). The samples were vortexed for 30 sec and then centrifuged at 16,100 g for 5 min. The supernatant was analyzed by LC-MS/MS. The MS peak area ratio of the test compound versus the internal standard was calculated and percent unchanged test compound was calculated for each time point using this ratio.

The test system of a further data set is fresh human hepatocytes. The data set is described as follows: Release of active metabolite in fresh human hepatocytes. The data set is classed as in vitro ADME. The settings on record: 10 μM. As to the method: Assay for the Release of Active Metabolite in Primary Hepatocytes: Plates of fresh human and mouse hepatocytes were obtained on ice. The medium was removed and replaced with hepatocyte culture medium (William's E supplemented with penicillin-streptomycin, 1% L-glutamine, 1% insulin-transferrin-selenium and 0.1 μM Dexamethasone (Invitrogen) or with Invitro GRO HI medium complemented with Torpedo antibiotics (Celsis)). Cells were left overnight in an incubator at 37° C. to acclimatize to culture and the medium.
Hepatocyte incubations were conducted at a final volume of 0.5 mL hepatocyte culture medium/well (0.8 million cells/well for human and 0.5 million cells/well for mouse; 12 well plate no overlay, collagen coat). Culture medium from overnight incubation of cells was removed and replaced with fresh medium, pre-warmed to 37° C., containing 10 μM of test compound from a stock solution in DMSO (final DMSO concentration was 0.1%). At each specific time point, incubation medium was removed and cell monolayers were carefully washed two times with ice-cold PBS. Following the last wash, all PBS was carefully removed and 1.0 mL of extraction solution (ice-cold 70% methanol/30% water) added. Cells were scraped off and suspended in the extraction solution, transferred to 2 mL polypropylene microfuge tubes and intracellular contents extracted overnight at −20° C.
After the overnight treatment the cellular extracts were prepared by centrifugation at 16,000×g for 10 min to remove cellular debris. The remaining sample was then dried using a refrigerated centrivap concentrator. Dry extracts were reconstituted in 1000 μL of HPLC-grade water and centrifuged at 16,000×g for 10 min. Aliquots (100 μL each) of the supernatant were transferred into a 96 well plate and internal standard (4 ng/mL final concentration) was added as the internal standard (IS) for LC-MS/MS analysis.
The incubation time points were 6, 24 and 48 hours for human hepatocytes and 1, 4, 8, 12 and 24 hours for mouse hepatocytes.

Structures are written as SMILES. Like-named read-outs stand apart in the source and are kept apart here. A value given as a limit tells only on which side of the number the result lay.

For `CCOc1nc(N)nc2c1ncn2[C@@H]1O[C@@H]2COP(=O)(N[C@@H](C)COC(=O)C(C)C)O[C@H]2[C@@]1(C)F` (stereo partly drawn) [Compound 3], the EC50 with HCV genotype 1b replicon (Hepatitis C virus, 72 h) was less than 0.25 µM. The CC50 in data set [1] was more than 50 µM.
Regarding `CCOc1nc(N)nc2c1ncn2[C@@H]1O[C@@H]2COP(=O)(N[C@@H](C)C(=O)OCC(C)C)O[C@H]2[C@@]1(C)F` (single isomer, unassigned) [Compound 4 Diastereomer 2], the EC50 in the data set with HCV genotype 1b replicon is less than 0.25 µM. Further, the CC50 with Zluc cells is more than 50 µM. Besides, the “Stability SIF” value in data set [2] is reported as “BLD^a”. Moreover, in data set [3], the “Stability WB_Human (37° C.; 2 hr)” value amounted to 1%. Moreover, in the data set on fresh human hepatocytes, the “FHH TP AUC (pmol · hr/mill cells)” value was found to be 1575 pmol · hr/mill cells.
Regarding `CCOc1nc(N)nc2c1ncn2[C@@H]1O[C@@H]2COP(=O)(N[C@@H](CC)COC(=O)C(C)C)O[C@H]2[C@@]1(C)F` (single isomer, unassigned) [Compound 8 Diastereomer 2], the EC50 with HCV genotype 1b replicon was less than 0.25 µM. Further, in the data set with Zluc cells, the CC50 was more than 50 µM. In data set [2], the “Stability SIF” value is 69%. Also, the “Stability WB_Human (37° C.; 2 hr)” value in data set [3] stood at 1%. Further, the “FHH TP AUC (pmol · hr/mill cells)” value in the data set on fresh human hepatocytes was 359 pmol · hr/mill cells.
Turning to `CCOc1nc(N)nc2c1ncn2[C@@H]1O[C@@H]2COP(=O)(N[C@@H](C)C(=O)OC(C)C)O[C@H]2[C@@]1(C)O` (single isomer, unassigned) [Compound 5 Diastereomer 1], the EC50 in the data set with HCV genotype 1b replicon lay in the range of 0.25 to 1 µM. Besides, in data set [1], the CC50 is more than 50 µM. Further, the “Stability SIF” value in data set [2] is listed as 5%. Further, the “Stability WB_Human (37° C.; 2 hr)” value in data set [3] was determined as 87%. For the same compound, in the data set on fresh human hepatocytes, the “FHH TP AUC (pmol · hr/mill cells)” value was 3615 pmol · hr/mill cells.
In the case of `CCOC(=O)C(C)(C)NP1(=O)OC[C@H]2O[C@@H](n3cnc4c(OCC)nc(N)nc43)[C@](C)(F)[C@@H]2O1` (single isomer, unassigned) [Compound 7 Diastereomer 2], in the data set with HCV genotype 1b replicon, the EC50 was less than 0.25 µM. Besides, in the data set on Zluc cells, the CC50 was more than 50 µM. For the same compound, the “Stability SIF” value in data set [2] was 102%. Also, the “Stability WB_Human (37° C.; 2 hr)” value in data set [3] is given as 36%. The “FHH TP AUC (pmol · hr/mill cells)” value in the data set on fresh human hepatocytes worked out at 830 pmol · hr/mill cells.
For `CCOc1nc(N)nc2c1ncn2[C@@H]1O[C@@H]2COP(=O)(N[C@@H](CC)COC(=O)C(C)C)O[C@H]2[C@@]1(C)F` (single isomer, unassigned) [Compound 8 Diastereomer 1], the half-maximal effective concentration (EC50) in the data set with HCV genotype 1b replicon (Hepatitis C virus, 72 h) was less than 0.25 µM. Also, the CC50 in data set [1] is more than 50 µM. In addition, in data set [2], the “Stability SIF” value is listed as 15%. The “Stability WB_Human (37° C.; 2 hr)” value in data set [3] came out at 18%. Moreover, the “FHH TP AUC (pmol · hr/mill cells)” value with fresh human hepatocytes is 308 pmol · hr/mill cells.
`CCOC(=O)C(C)(C)NP1(=O)OC[C@H]2O[C@@H](n3cnc4c(OCC)nc(N)nc43)[C@](C)(F)[C@@H]2O1` (single isomer, unassigned) [Compound 7 Diastereomer 1]: the EC50 with HCV genotype 1b replicon (Hepatitis C virus, 72 h) lay in the range of 0.25 to 1 µM. In addition, the CC50 in data set [1] was more than 50 µM. For the same compound, in data set [2], the “Stability SIF” value is 91%. In addition, the “Stability WB_Human (37° C.; 2 hr)” value in data set [3] was 96%. Besides, the “FHH TP AUC (pmol · hr/mill cells)” value in the data set with fresh human hepatocytes came to 1148 pmol · hr/mill cells.
For the compound `CCOc1nc(N)nc2c1ncn2[C@@H]1O[C@@H]2COP(=O)(N[C@@H](C)C(=O)OC3CCCC3)O[C@H]2[C@@]1(C)F` (single isomer, unassigned) [Compound 10 Diastereomer 2], in the data set with HCV genotype 1b replicon, the EC50 was less than 0.25 µM. Besides, the CC50 with Zluc cells is not above 50 µM. In data set [2], the “Stability SIF” value is 67%. For the same compound, the “Stability WB_Human (37° C.; 2 hr)” value in data set [3] amounted to 80%. Also, the “FHH TP AUC (pmol · hr/mill cells)” value in the data set with fresh human hepatocytes amounted to 2752 pmol · hr/mill cells.
In the case of `CCOc1nc(N)nc2c1ncn2[C@@H]1O[C@@H]2COP(=O)(N[C@@H](C)C(=O)OC3CCCC3)O[C@H]2[C@@]1(C)F` (single isomer, unassigned) [Compound 10 Diastereomer 1], the EC50 in the data set on HCV genotype 1b replicon (Hepatitis C virus, 72 h) was less than 0.25 µM. For the same compound, in data set [1], the CC50 was more than 50 µM. For the same compound, in data set [2], the “Stability SIF” value was 2%. Further, the “Stability WB_Human (37° C.; 2 hr)” value in data set [3] was found to be 5%. Further, in the data set with fresh human hepatocytes, the “FHH TP AUC (pmol · hr/mill cells)” value is reported as 1944 pmol · hr/mill cells.

For orientation: EC50 means the concentration giving half of the maximal effect. As usually defined, the CC50 is the concentration giving 50% cytotoxicity.

The values above are taken from patent US9109001B2, “3′,5′-cyclic phosphoramidate prodrugs for HCV infection” (priority 2012, dated 2015).
